Experimental data: patent publication US8188093B2, “Pyrazinecarboxamide derivatives as HDL-cholesterol raising agents” (Hoffmann-La Roche Inc., priority 2006, dated 2012)
Values belong to the compound of their own block, whether it stands above or below them.

Experiments:
[1] = system: obese male Sprague Dawley rats; experiment: Effects on plasma lipid levels (HDL cholesterol) in obese, high fat diet fed rats; type: in vivo, rat; settings: 28-29 days
Method: Efficacy of compounds in modulating plasma lipid levels was determined also in obese male Sprague Dawley rats after 28-29 days administration of compounds. Male Sprague-Dawley rats of 10 weeks of age were fed a high fat diet during 3 weeks. Obese rats were distributed in groups according to homogeneous BW and FI evaluated a week before the start of the treatment. Treatment was administered as food-Admix. On day 29, blood was taken in the morning under slight anesthesia (retro-orbital method) in post-prandial conditions i.e. 4 h after food was removed. Plasma was separated from blood by low speed centrifugation and selected organs were taken (e.g. liver, fat). Total cholesterol, HDL-cholesterol, and triglycerides were determined by measuring total cholesterol, HDL-cholesterol and triglyceride using colorimetric enzymatic assays (Roche Diagnostic GmbH, Mannheim, Germany). HDL-C was also quantified using size exclusion chromatography on superpose-6 column using a SMART system (Pharmacia). Lipoprotein distribution was calculated assuming a Gaussian distribution for each peak, using a nonlinear, least-squares curve-fitting procedure to calculate the area under the curve (AUC). Compound concentration was also determined in plasma.

[2] = system: lean, chow-fed male Sprague-Dawley rats; experiment: Effects on plasma lipid levels (HDL cholesterol) in lean, chow fed rats; type: in vivo, rat; settings: 30 mg/kg p.o. of compound, once daily for five days, size exclusion chromatography AUC
Method: Effects of compounds of formula I on plasma lipid levels were determined in lean, chow-fed male Sprague-Dawley rats with compounds administered by p.o. gavage. After one week of acclimation, blood samples were collected from 4 hour-fasted animals for plasma lipid determination. Animals were then assigned to treatment groups based on HDL-cholesterol levels. Compounds of formula I were administered by gavage, once daily for five days. Control animals received vehicle alone. Blood was collected on day five from 4 hour-fasted rats, 2 hours after a final treatment, for plasma lipid analysis. Total cholesterol, HDL-cholesterol, and triglycerides were determined by measuring total cholesterol, HDL-cholesterol, and triglyceride using colorimetric enzymatic assays (Roche Diagnostic GmbH, Mannheim, Germany). HDL-C was also quantified using size exclusion chromatography on superpose-6 column using a SMART system (Pharmacia). Lipoprotein distribution was calculated assuming a Gaussian distribution for each peak, using a nonlinear, least-squares curve-fitting procedure to calculate the area under the curve (AUC). Compound concentration was also determined in plasma.

hamsters = experiment: Effects on plasma lipid levels (HDL cholesterol) in hamsters; type: in vivo, hamster; settings: 30 mg/kg po of compound, once daily for five days
Method: Efficacy of compounds in modulating plasma lipid levels was determined in hamsters after 5 days of daily administration of compounds. Male hamsters of 6-8 weeks of age were used in the studies. After one week of acclimation, blood samples were collected from 4 hour-fasted animals for plasma lipid determination. Animals were then assigned to treatment groups based on HDL-cholesterol levels. Compounds were administered by gavage, once daily for five days. Control animals received vehicle alone. Blood was collected on day five from 4 hour-fasted hamsters, 2 hours after a final treatment, for plasma lipid analysis. Total cholesterol, HDL-cholesterol, LDL-cholesterol, and triglycerides were determined using colorimetric enzymatic assays (Roche Diagnostic GmbH, Mannheim, Germany). HDL-cholesterol, LDL-cholesterol, and VLDL-cholesterol levels were also quantified using size exclusion chromatography on superpose-6 column using a SMART system (Pharmacia). Lipoprotein distribution was calculated assuming a Gaussian distribution for each peak, using a nonlinear, least-squares curve-fitting procedure to calculate the area under the curve. Compound concentration was also determined in plasma.

[3] = 30 mg/kg food admix of compound

melting point: 172 to 178 °C
SMILES: CCCCOc1ncc(C(=O)N[C@@H]2CCCC[C@H]2O)cc1-c1cc(C(F)(F)F)ccc1F

SMILES: O=C(N[C@@H]1CCCC[C@H]1O)c1cnc(OCC2CC2)c(-c2ccc(Cl)cc2)c1 [5-(4-chloro-phenyl)-6-cyclopropylmethoxy-N-((1R,2R)-2-hydroxy-cyclohexyl)-nicotinamide]
HDL Cholesterol levels [AUC as % compared to control] [1, 3]: +84%
HDL Cholesterol levels [AUC as % compared to control] [2]: +30%

SMILES: O=C(N[C@@H]1CCCC[C@H]1O)c1cnc(OCC(F)(F)F)c(-c2ccc(Cl)cc2)c1 [5-(4-chloro-phenyl)-N-((1R,2R)-2-hydroxy-cyclohexyl)-6-(2,2,2-trifluoroethoxy)-nicotinamide]
HDL Cholesterol levels [AUC as % compared to control] [2]: +78%
HDL Cholesterol levels [AUC as % compared to control] (hamsters): +69%

SMILES: COCCOc1ncc(C(=O)N[C@@H]2CCCC[C@H]2O)cc1-c1ccc(Cl)cc1 [5-(4-chloro-phenyl)-N-((1R,2R)-2-hydroxy-cyclohexyl)-6-(2-methoxy-ethoxy)-nicotinamide]
HDL Cholesterol levels [AUC as % compared to control] [1, 3]: +50%

SMILES: O=C(N[C@@H]1CCCC[C@H]1O)c1cnc(OCC2CC2)c(-c2ccc(F)cc2)c1 [6-cyclopropylmethoxy-5-(4-fluoro-phenyl)-N-((1R,2R)-2-hydroxy-cyclohexyl)-nicotinamide]
HDL Cholesterol levels [AUC as % compared to control] [2]: +35%

melting point: 154 to 155 °C
SMILES: O=C(N[C@@H]1CCCC[C@H]1O)c1cnc(Oc2ccccc2Cl)c(-c2ccc(Cl)cc2)n1 [Example 39, 5-(2-Chloro-phenoxy)-6-(4-chloro-phenyl)-pyrazine-2-carboxylic acid ((1R,2R)-2-hydroxy-cyclohexyl)-amide]

SMILES: C[C@](O)(CNC(=O)c1cnc(OCC2CC2)c(-c2ccc(F)cc2)c1)C1CC1 [N—((R)-2-cyclopropyl-2-hydroxy-propyl)-6-cyclopropylmethoxy-5-(4-fluorophenyl)-nicotinamide]
HDL Cholesterol levels [AUC as % compared to control] [2]: +73%

SMILES: Cc1c(C(=O)NN2CCCCC2)nn(-c2ccc(Cl)cc2Cl)c1-c1ccc(Cl)cc1 [Rimonabant, reference compound]
HDL Cholesterol levels [AUC as % compared to control] ([1]; 10 mg/kg food admix): +11%
